Where a name gives a salt, the structure may show the parent alone.

The nature of one data set: Aqueous solubility. The following applies: for Times Increased of Aqueous Solubility (Comp. vs. Rapa): ratio of compound solubility to Rapa solubility; for solubility / Aqueous Solubility: water. The data set is classed as physicochemical.

`CO[C@H]1C[C@@H]2CC[C@@H](C)[C@@](O)(O2)C(=O)C(=O)N2CCCC[C@H]2C(=O)O[C@H]([C@H](C)C[C@@H]2CC[C@@H](OC(=O)C[n+]3cscc3C)[C@H](OC)C2)CC(=O)[C@H](C)/C=C(\C)[C@@H](O)[C@@H](OC)C(=O)[C@H](C)C[C@H](C)/C=C/C=C/C=C/1C` (as salt: ammonium) [Compound 2, Rapa-42-ester of 2-(4-methylthiazolium-3-yl)acetic Acid]: the melting point was in the range of 130 to 133 °C.

With `CO[C@H]1C[C@@H]2CC[C@@H](C)[C@@](O)(O2)C(=O)C(=O)N2CCCC[C@H]2C(=O)O[C@H]([C@H](C)C[C@@H]2CC[C@@H](OC(=O)C[n+]3ccccc3)[C@H](OC)C2)CC(=O)[C@H](C)/C=C(\C)[C@@H](O)[C@@H](OC)C(=O)[C@H](C)C[C@H](C)/C=C/C=C/C=C/1C` (as salt: ammonium) [Compound 3, Rapa-42-ester of 2-(pyridinium-1-yl)acetic Acid], the melting point lay in the range of 135 to 137 °C.

For `CO[C@H]1C[C@@H]2CC[C@@H](C)[C@@](O)(O2)C(=O)C(=O)N2CCCC[C@H]2C(=O)O[C@H]([C@H](C)C[C@@H]2CC[C@@H](OC(=O)C[n+]3cccc(C)c3)[C@H](OC)C2)CC(=O)[C@H](C)/C=C(\C)[C@@H](O)[C@@H](OC)C(=O)[C@H](C)C[C@H](C)/C=C/C=C/C=C/1C` (as salt: ammonium) [Compound 4, Rapa-42-ester of 2-(3-methylpyridinium-1-yl)acetic Acid], the melting point fell in the range of 138 to 140 °C.

As for `CO[C@H]1C[C@@H]2CC[C@@H](C)[C@@](O)(O2)C(=O)C(=O)N2CCCC[C@H]2C(=O)O[C@H]([C@H](C)C[C@@H]2CC[C@@H](OC(=O)C[n+]3csc(C)c3C)[C@H](OC)C2)CC(=O)[C@H](C)/C=C(\C)[C@@H](O)[C@@H](OC)C(=O)[C@H](C)C[C@H](C)/C=C/C=C/C=C/1C` [Compound 1, Rapa-42-ester of 2-(4,5-dimethylthiazolium-3-yl)acetic Acid], in “Aqueous solubility”, the “Times Increased of Aqueous Solubility (Comp. vs. Rapa)” value (shortened to “Times Increased of Aqueous Solubility”) was found to be 1615 and the concentration in solution (solubility) was 4200 µg/mL.

On to `CO[C@H]1C[C@@H]2CC[C@@H](C)[C@@](O)(O2)C(=O)C(=O)N2CCCC[C@H]2C(=O)O[C@H]([C@H](C)C[C@@H]2CC[C@@H](OC(=O)C[n+]3cscc3C)[C@H](OC)C2)CC(=O)[C@H](C)/C=C(\C)[C@@H](O)[C@@H](OC)C(=O)[C@H](C)C[C@H](C)/C=C/C=C/C=C/1C` [Compound 2, Rapa-42-ester of 2-(4-methylthiazolium-3-yl)acetic Acid], for which, in “Aqueous solubility”, the “Times Increased of Aqueous Solubility” value stood at 11 and the solubility was determined as 28 µg/mL.

On to `CO[C@H]1C[C@@H]2CC[C@@H](C)[C@@](O)(O2)C(=O)C(=O)N2CCCC[C@H]2C(=O)O[C@H]([C@H](C)C[C@@H]2CC[C@@H](OC(=O)C[n+]3ccccc3)[C@H](OC)C2)CC(=O)[C@H](C)/C=C(\C)[C@@H](O)[C@@H](OC)C(=O)[C@H](C)C[C@H](C)/C=C/C=C/C=C/1C` [Compound 3, Rapa-42-ester of 2-(pyridinium-1-yl)acetic Acid], for which, in “Aqueous solubility”, the “Times Increased of Aqueous Solubility” value is 10 and the solubility stood at 25 µg/mL.

For the compound `CO[C@H]1C[C@@H]2CC[C@@H](C)[C@@](O)(O2)C(=O)C(=O)N2CCCC[C@H]2C(=O)O[C@H]([C@H](C)C[C@@H]2CC[C@@H](OC(=O)C[n+]3cccc(C)c3)[C@H](OC)C2)CC(=O)[C@H](C)/C=C(\C)[C@@H](O)[C@@H](OC)C(=O)[C@H](C)C[C@H](C)/C=C/C=C/C=C/1C` [Compound 4, Rapa-42-ester of 2-(3-methylpyridinium-1-yl)acetic Acid], in the data set “Aqueous solubility”, the “Times Increased of Aqueous Solubility” value worked out at 2577 and the concentration in solution (solubility) was 6700 µg/mL.

On to `CO[C@H]1C[C@@H]2CC[C@@H](C)[C@@](O)(O2)C(=O)C(=O)N2CCCC[C@H]2C(=O)O[C@H]([C@H](C)C[C@@H]2CC[C@@H](OC(=O)C[n+]3cccc(O)c3)[C@H](OC)C2)CC(=O)[C@H](C)/C=C(\C)[C@@H](O)[C@@H](OC)C(=O)[C@H](C)C[C@H](C)/C=C/C=C/C=C/1C` [Compound 5, Rapa-42-ester of 2-(3-hydroxypyridinium-1-yl)acetic Acid], for which, in the data set “Aqueous solubility”, the “Times Increased of Aqueous Solubility” value amounted to 4 and the solubility stood at 10 µg/mL.

Regarding `CO[C@H]1C[C@@H]2CC[C@@H](C)[C@@](O)(O2)C(=O)C(=O)N2CCCC[C@H]2C(=O)O[C@H]([C@H](C)C[C@@H]2CC[C@@H](OC(=O)C[n+]3ccc(C)cc3)[C@H](OC)C2)CC(=O)[C@H](C)/C=C(\C)[C@@H](O)[C@@H](OC)C(=O)[C@H](C)C[C@H](C)/C=C/C=C/C=C/1C` [Compound 6, Rapa-42-ester of 2-(4-methylpyridinium-1-yl)acetic Acid], in the data set “Aqueous solubility”, the “Times Increased of Aqueous Solubility” value is given as 2308 and the concentration in solution (solubility) came to 6000 µg/mL.

On to `CO[C@H]1C[C@@H]2CC[C@@H](C)[C@@](O)(O2)C(=O)C(=O)N2CCCC[C@H]2C(=O)O[C@H]([C@H](C)C[C@@H]2CC[C@@H](O)[C@H](OC)C2)CC(=O)[C@H](C)/C=C(\C)[C@@H](OC(=O)C[n+]2csc(C)c2C)[C@@H](OC)C(=O)[C@H](C)C[C@H](C)/C=C/C=C/C=C/1C` [Compound 7, Rapa-31-ester of 2-(4,5-dimethylthiazolium-3-yl)acetic Acid], for which, in the data set “Aqueous solubility”, the “Times Increased of Aqueous Solubility” value stood at 8962 and the concentration in solution (solubility) was 23300 µg/mL.

Consider `CO[C@H]1C[C@@H]2CC[C@@H](C)[C@@](O)(O2)C(=O)C(=O)N2CCCC[C@H]2C(=O)O[C@H]([C@H](C)C[C@@H]2CC[C@@H](O)[C@H](OC)C2)CC(=O)[C@H](C)/C=C(\C)[C@@H](OC(=O)C[n+]2cscc2C)[C@@H](OC)C(=O)[C@H](C)C[C@H](C)/C=C/C=C/C=C/1C` [Compound 8, Rapa-31-ester of 2-(4-methylthiazolium-3-yl)acetic Acid], for which, in “Aqueous solubility”, the “Times Increased of Aqueous Solubility” value was 3846 and the concentration in solution (solubility) was 10000 µg/mL.

As to `CO[C@H]1C[C@@H]2CC[C@@H](C)[C@@](O)(O2)C(=O)C(=O)N2CCCC[C@H]2C(=O)O[C@H]([C@H](C)C[C@@H]2CC[C@@H](O)[C@H](OC)C2)CC(=O)[C@H](C)/C=C(\C)[C@@H](OC(=O)C[n+]2cccc(C)c2)[C@@H](OC)C(=O)[C@H](C)C[C@H](C)/C=C/C=C/C=C/1C` [Compound 9, Rapa-31-ester of 2-(3-methylpyridinium-1-yl)acetic Acid], in the data set “Aqueous solubility”, the “Times Increased of Aqueous Solubility” value was found to be 10269 and the solubility stood at 26700 µg/mL.

Turning to `CO[C@H]1C[C@@H]2CC[C@@H](C)[C@@](O)(O2)C(=O)C(=O)N2CCCC[C@H]2C(=O)O[C@H]([C@H](C)C[C@@H]2CC[C@@H](O)[C@H](OC)C2)CC(=O)[C@H](C)/C=C(\C)[C@@H](OC(=O)C[n+]2ccccc2)[C@@H](OC)C(=O)[C@H](C)C[C@H](C)/C=C/C=C/C=C/1C` [Compound 10, Rapa-31-ester of 2-(pyridinium-1-yl)acetic Acid], in the data set “Aqueous solubility”, the “Aqueous Solubility” value came out at 52600 µg/mL and the solubility worked out at 62000 µg/mL.

`CO[C@H]1C[C@@H]2CC[C@@H](C)[C@@](O)(O2)C(=O)C(=O)N2CCCC[C@H]2C(=O)O[C@H]([C@H](C)C[C@@H]2CC[C@@H](O)[C@H](OC)C2)CC(=O)[C@H](C)/C=C(\C)[C@@H](OC(=O)C[n+]2ccc(C)cc2)[C@@H](OC)C(=O)[C@H](C)C[C@H](C)/C=C/C=C/C=C/1C` [Compound 11, Rapa-31-ester of 2-(4-methylpyridinium-1-yl)acetic Acid]: in “Aqueous solubility”, the “Aqueous Solubility” value was 62500 µg/mL and the solubility worked out at 62000 µg/mL.

These data come from paper PMC6271078 (Molecules, 2014).
